Legend:
Assay in all cases: relative viability (nuclei count vs DMSO), 5 days (fraction); higher = more cells survive
NVP-TAE684 + Lapatinib = compound: COc1cc(N2CCC(N3CCN(C)CC3)CC2)ccc1Nc1ncc(Cl)c(Nc2ccccc2S(=O)(=O)C(C)C)n1 [NVP-TAE684] + CS(=O)(=O)CCNCc1ccc(-c2ccc3ncnc(Nc4ccc(OCc5cccc(F)c5)c(Cl)c4)c3c2)o1 [Lapatinib] (partner 2 µM)
In short: (§1)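 The day after seeding in 1536-well plates, lung cancer cell lines were treated by pin tool with a single drug, or with a fixed anchor-drug dose together with five library-drug doses (not always all listed) in √10 steps. After 5 days, a combined fix-and-stain solution (final 0.05% Triton X-100, 1% formaldehyde, 1 ug/ml Hoechst) was added. Nuclei counted on 4× images gave relative viability as treated counts over vehicle counts, reported as the median of duplicate plates.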

CUDC-101 + Vorinostat = compound: C#Cc1cccc(Nc2ncnc3cc(OC)c(OCCCCCCC(=O)NO)cc23)c1 [CUDC-101] + O=C(CCCCCCC(=O)Nc1ccccc1)NO [Vorinostat] (partner 1 µM)
In short: as §1

NVP-TAE684 + Palbociclib = compound: COc1cc(N2CCC(N3CCN(C)CC3)CC2)ccc1Nc1ncc(Cl)c(Nc2ccccc2S(=O)(=O)C(C)C)n1 [NVP-TAE684] + CC(=O)c1c(C)c2cnc(Nc3ccc(N4CCNCC4)cn3)nc2n(C2CCCC2)c1=O [Palbociclib] (partner 0.5 µM)
In short: as §1

[1] = compound: C1=CC=C2C(=C1)N=C(S2)C(C#N)C3=NC(=NC=C3)NCCC4=CN=CC=C4 + Nc1ncn([C@H]2C[C@H](O)[C@@H](CO)O2)c(=O)n1 [Decitabine] (partner 2 µM)
In short: as §1

NVP-TAE684 + Bortezomib = compound: COc1cc(N2CCC(N3CCN(C)CC3)CC2)ccc1Nc1ncc(Cl)c(Nc2ccccc2S(=O)(=O)C(C)C)n1 [NVP-TAE684] + CC(C)C[C@H](NC(=O)[C@H](Cc1ccccc1)NC(=O)c1cnccn1)B(O)O [Bortezomib] (partner 0.002 µM)
In short: as §1

Cell Line	relative viability (NVP-TAE684 + Lapatinib; first compound 0.2 µM)	relative viability (NVP-TAE684 + Lapatinib; first compound 0.6325 µM)	relative viability (NVP-TAE684 + Lapatinib; first compound 2 µM)	relative viability (CUDC-101 + Vorinostat; first compound 0.01 µM)	relative viability (CUDC-101 + Vorinostat; first compound 0.03162 µM)	relative viability (CUDC-101 + Vorinostat; first compound 0.1 µM)	relative viability (CUDC-101 + Vorinostat; first compound 0.3162 µM)	relative viability (CUDC-101 + Vorinostat; first compound 1 µM)	relative viability (NVP-TAE684 + Palbociclib; first compound 0.2 µM)	relative viability (NVP-TAE684 + Palbociclib; first compound 0.6325 µM)	relative viability (NVP-TAE684 + Palbociclib; first compound 2 µM)	relative viability ([1]; first compound 0.005 µM)	relative viability ([1]; first compound 0.05 µM)	relative viability ([1]; first compound 0.1581 µM)	relative viability ([1]; first compound 0.5 µM)	relative viability (NVP-TAE684 + Bortezomib; first compound 0.6325 µM)	relative viability (NVP-TAE684 + Bortezomib; first compound 2 µM)	relative viability ([1]; first compound 0.01581 µM)	relative viability (NVP-TAE684 + Bortezomib; first compound 0.2 µM)
NCI-H1395	1.29	0.921	0.859	0.81	0.753	0.797	0.661	0.489	0.618	0.639	0.54	0.721	0.732	0.769	0.742	–	–	–	–
NCI-H1563	0.95	0.858	0.655	–	–	–	–	–	–	–	–	–	–	–	–	0.755	0.725	–	–
NCI-H1648	–	–	–	0.631	0.378	0.333	0.225	0.22	0.241	0.295	0.202	–	–	0.535	0.388	–	–	0.438	–
NCI-H1703	1.41	0.994	0.392	–	–	–	–	–	–	–	–	–	–	–	–	0.275	0.129	–	0.315
NCI-H1792	0.913	0.825	0.89	–	–	–	–	–	0.606	0.615	0.648	–	0.638	0.675	0.388	0.967	0.819	0.736	0.779
NCI-H1793	0.925	0.499	0.611	0.858	0.774	0.558	0.675	0.331	0.297	0.302	0.239	–	0.424	0.538	0.465	–	–	0.521	–
NCI-H1944	–	0.798	0.607	0.522	0.58	0.529	0.533	0.369	0.313	0.321	0.236	0.404	0.412	0.433	0.388	–	–	0.497	–
NCI-H2170	0.253	0.244	0.247	0.809	0.821	0.77	0.859	0.549	0.33	0.382	0.375	0.419	0.425	0.468	0.488	–	–	0.46	–
NCI-H2228	0.458	0.212	0.321	0.611	0.575	0.585	0.783	0.526	0.44	0.253	0.279	–	–	–	–	0.33	0.214	–	0.633
NCI-H2342	–	–	–	0.737	0.663	0.773	0.685	0.703	0.499	0.459	0.457	0.727	0.694	0.837	0.71	–	–	0.844	–
SK-MES-1	0.539	0.453	0.472	1.04	1.04	1.1	1.12	0.915	0.347	0.313	0.296	0.48	0.372	0.409	0.41	–	–	0.405	–
SW 900	–	–	–	0.48	0.569	0.31	0.49	0.217	0.576	0.456	0.43	0.393	0.401	0.557	0.391	–	–	0.342	–

From the supplement of paper PMC10307832
